Experimental data reported in PubChem BioAssay AID248 (DTP/NCI, 2004).
Values joined by “and” are separate entries in the source; they are usually repeats but may differ in a detail not shown here. Equal entries are not always repeated. Toxic doses and inconclusive results are not listed. Cut-off read from the data, not from the text of the source: active = T/C of 150% or more; inactive = T/C below 125%.

Tested on: L1210 leukemia ip in BDF1 mice, survival T/C
Experiment: NCI In Vivo Anticancer Drug Screen. Data for tumor model L1210 Leukemia (intraperitoneal) in B6D2F1 (BDF1) mice
Conditions: endpoint: mean survival time, higher = longer survival
Summary of the method: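 Survival endpoint. Drug-treated group vs vehicle group, expressed as T divided by C. Tumor passaged by transplantation.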

[1] = dose: 100.0 mg/kg/injection, schedule: Q01DX001 (ip), vehicle: saline
[2] = dose: 200.0 mg/kg/injection, schedule: Q01DX001 (ip), vehicle: saline
[3] = dose: 400.0 mg/kg/injection, schedule: Q01DX001 (ip), vehicle: saline
[4] = dose: 25.0 mg/kg/injection, schedule: Q04DX003 (ip), vehicle: saline
[5] = dose: 50.0 mg/kg/injection, schedule: Q01DX009 (ip), vehicle: saline
[6] = dose: 50.0 mg/kg/injection, schedule: Q04DX003 (ip), vehicle: saline
[7] = dose: 100.0 mg/kg/injection, schedule: Q01DX009 (ip), vehicle: saline
[8] = dose: 100.0 mg/kg/injection, schedule: Q04DX003 (ip), vehicle: saline
[9] = dose: 100.0 mg/kg/injection, schedule: Q04DX003 (ip), vehicle: Klucel (hydroxypropylcellulose) (HPC)
[10] = dose: 200.0 mg/kg/injection, schedule: Q04DX003 (ip), vehicle: Klucel (hydroxypropylcellulose) (HPC)
[11] = dose: 100.0 mg/kg/injection, schedule: Q04DX002 (ip), vehicle: Klucel (hydroxypropylcellulose) (HPC)
[12] = dose: 200.0 mg/kg/injection, schedule: Q04DX002 (ip), vehicle: Klucel (hydroxypropylcellulose) (HPC)
[13] = dose: 100.0 mg/kg/injection, schedule: Q01DX009 (ip), vehicle: saline with Tween-80
[14] = dose: 200.0 mg/kg/injection, schedule: Q01DX009 (ip), vehicle: saline with Tween-80
[15] = dose: 400.0 mg/kg/injection, schedule: Q01DX009 (ip), vehicle: saline with Tween-80
[16] = dose: 25.0 mg/kg/injection, schedule: Q01DX009 (ip), vehicle: saline with Tween-80
[17] = dose: 50.0 mg/kg/injection, schedule: Q01DX009 (ip), vehicle: saline with Tween-80

Measured: T/C

CCCCOCCCNCC(=O)Nc1ccc(S(=O)(=O)c2ccc(NC(=O)CNCCCOCCCC)cc2)cc1
inactive: [1] 89 % of control | [2] 97 % of control | [3] 108 % of control

CCCCCCCCCCCCCSCCSCCCCCCCCCCCCC
inactive: dose: 100.0 mg/kg/injection, schedule: Q01DX001 (ip), vehicle: Klucel (hydroxypropylcellulose) (HPC) 96 % of control | dose: 200.0 mg/kg/injection, schedule: Q01DX001 (ip), vehicle: Klucel (hydroxypropylcellulose) (HPC) 86 % of control | dose: 400.0 mg/kg/injection, schedule: Q01DX001 (ip), vehicle: Klucel (hydroxypropylcellulose) (HPC) 96 % of control

COC(=O)c1cncn1C(C)c1ccccc1 (centres undefined)
inactive: [4] 97 % of control | [5] 104 % of control | [6] 95 % of control | [7] 109 % of control | [8] 97 % of control and 101 % of control

Nc1ccc2c(c1)[nH]c(=O)c1cc(Br)ccc12
inactive: dose: 100.0 mg/kg/injection, schedule: Q01DX001 (ip), vehicle: carboxymethylcellulose (CMC) 104 % of control | dose: 200.0 mg/kg/injection, schedule: Q01DX001 (ip), vehicle: carboxymethylcellulose (CMC) 100 % of control | dose: 400.0 mg/kg/injection, schedule: Q01DX001 (ip), vehicle: carboxymethylcellulose (CMC) 102 % of control

O=[N+]([O-])c1ccc(C2OC(c3ccncc3)=NC2CO)cc1 (centres undefined)
inactive: dose: 12.5 mg/kg/injection, schedule: Q04DX002 (ip), vehicle: saline 90 % of control | dose: 25.0 mg/kg/injection, schedule: Q04DX002 (ip), vehicle: saline 97 % of control | [5] 96 % of control | dose: 50.0 mg/kg/injection, schedule: Q04DX002 (ip), vehicle: saline 90 % of control | dose: 75.0 mg/kg/injection, schedule: Q01DX009 (ip), vehicle: saline 102 % of control | dose: 115.0 mg/kg/injection, schedule: Q01DX009 (ip), vehicle: saline 101 % of control

NC(=S)c1cccnc1
inactive: dose: 50.0 mg/kg/injection, schedule: Q01DX003 (ip), vehicle: Klucel (hydroxypropylcellulose) (HPC) 94 % of control | dose: 100.0 mg/kg/injection, schedule: Q01DX003 (ip), vehicle: Klucel (hydroxypropylcellulose) (HPC) 94 % of control | [9] 109 % of control | dose: 200.0 mg/kg/injection, schedule: Q01DX003 (ip), vehicle: Klucel (hydroxypropylcellulose) (HPC) 97 % of control | [10] 111 % of control | dose: 400.0 mg/kg/injection, schedule: Q04DX003 (ip), vehicle: Klucel (hydroxypropylcellulose) (HPC) 109 % of control

Cc1cc(C)c(NC(=O)C2CCCCC2C(=O)O)c(C)c1 (centres undefined)
inactive: [11] 99 % of control | [12] 92 % of control | dose: 400.0 mg/kg/injection, schedule: Q04DX002 (ip), vehicle: Klucel (hydroxypropylcellulose) (HPC) 99 % of control

Nc1nc(Nc2ccc(C3=NCCN3)cc2)nc(Nc2ccc(C3=NCCN3)cc2)n1
inactive: dose: 1.2 mg/kg/injection, schedule: Q01DX Z (ip), vehicle: methylcellulose (MC) 112 % of control | dose: 1.9 mg/kg/injection, schedule: Q01DX Z (ip), vehicle: methylcellulose (MC) 123 % of control | dose: 3.75 mg/kg/injection, schedule: Q01DX Z (ip), vehicle: methylcellulose (MC) 117 % of control | dose: 15.0 mg/kg/injection, schedule: Q01DX Z (ip), vehicle: methylcellulose (MC) 120 % of control | dose: 16.5 mg/kg/injection, schedule: Q01DX009 (ip), vehicle: saline 108 % of control | dose: 25.0 mg/kg/injection, schedule: Q01DX009 (ip), vehicle: saline 120 % of control and 122 % of control | [4] 112 % of control | dose: 37.5 mg/kg/injection, schedule: Q01DX009 (ip), vehicle: saline 114 % of control and 115 % of control | [5] 123 % of control | [6] 109 % of control | dose: 60.0 mg/kg/injection, schedule: Q01DX Z (oral), vehicle: carboxymethylcellulose (CMC) 100 % of control | [1] 117 % of control | [8] 91 % of control | dose: 120.0 mg/kg/injection, schedule: Q01DX Z (oral), vehicle: carboxymethylcellulose (CMC) 95 % of control

CC(=O)N1Cc2cccn2Cc2cc3c(cc21)OCO3
inactive: dose: 25.0 mg/kg/injection, schedule: Q04DX002 (ip), vehicle: Klucel (hydroxypropylcellulose) (HPC) 97 % of control | dose: 50.0 mg/kg/injection, schedule: Q04DX002 (ip), vehicle: Klucel (hydroxypropylcellulose) (HPC) 87 % of control | [11] 97 % of control

CC1(C)N=C(N)N=C(N)N1c1ccc(CCCCc2ccc(S(=O)(=O)F)cc2)cc1
inactive: [5] 113 % of control | [7] 106 % of control

CNS(=O)(=O)c1ccc(N)cc1
inactive: dose: 100.0 mg/kg/injection, schedule: Q01DX001 (ip), vehicle: other 107 % of control | [13] 102 % of control | dose: 100.0 mg/kg/injection, schedule: Q04DX003 (ip), vehicle: other 97 % of control | dose: 200.0 mg/kg/injection, schedule: Q01DX001 (ip), vehicle: other 104 % of control | [14] 110 % of control | dose: 200.0 mg/kg/injection, schedule: Q04DX003 (ip), vehicle: other 106 % of control | dose: 400.0 mg/kg/injection, schedule: Q01DX001 (ip), vehicle: other 100 % of control | [15] 98 % of control | dose: 400.0 mg/kg/injection, schedule: Q04DX003 (ip), vehicle: other 108 % of control

O=C(CCCC(=O)NNC(=S)Nc1ccccc1Cl)NNC(=S)Nc1ccccc1Cl
inactive: dose: 50.0 mg/kg/injection, schedule: Q01DX001 (ip), vehicle: saline 96 % of control | [1] 96 % of control | [2] 93 % of control | [3] 93 % of control

NC(=O)C(Cc1cnc[nH]1)NC(=O)OCc1ccccc1 (centres undefined)
inactive: [13] 91 % of control | [14] 96 % of control | [15] 105 % of control

CC(=O)Nc1ccc(N2CCN=N2)cc1
inactive: [16] 103 % of control | [17] 109 % of control | dose: 100.0 mg/kg/injection, schedule: Q04DX003 (ip), vehicle: saline with Tween-80 97 % of control

Cc1nc(NNCc2ccccc2)n[nH]1
inactive: dose: 37.5 mg/kg/injection, schedule: Q01DX001 (ip), vehicle: Klucel (hydroxypropylcellulose) (HPC) 106 % of control | dose: 75.0 mg/kg/injection, schedule: Q01DX001 (ip), vehicle: Klucel (hydroxypropylcellulose) (HPC) 101 % of control | dose: 150.0 mg/kg/injection, schedule: Q01DX001 (ip), vehicle: Klucel (hydroxypropylcellulose) (HPC) 110 % of control

CCO/C=C1\SC(=S)N(c2ccc(C(=O)O)cc2)C1=O
inactive: [16] 108 % of control | [17] 100 % of control | dose: 100.0 mg/kg/injection, schedule: Q01DX009 (ip), vehicle: saline sonified 97 % of control | dose: 100.0 mg/kg/injection, schedule: Q04DX003 (ip), vehicle: saline sonified 99 % of control | dose: 200.0 mg/kg/injection, schedule: Q04DX003 (ip), vehicle: saline sonified 102 % of control | dose: 400.0 mg/kg/injection, schedule: Q04DX003 (ip), vehicle: saline sonified 108 % of control

O=c1[nH]cc(COCC(F)(F)C(F)(F)C(F)(F)F)c(=O)[nH]1
inactive: dose: 50.0 mg/kg/injection, schedule: Q01DX005 (ip), vehicle: water 104 % of control | dose: 100.0 mg/kg/injection, schedule: Q01DX005 (ip), vehicle: water 93 % of control | dose: 200.0 mg/kg/injection, schedule: Q01DX005 (ip), vehicle: water 95 % of control | dose: 400.0 mg/kg/injection, schedule: Q01DX005 (ip), vehicle: water 87 % of control

CCN(CC)c1ccc(/C=N/N=C(N)N)cc1
inactive: dose: 3.8 mg/kg/injection, schedule: Q01DX Z (ip), vehicle: other 109 % of control | dose: 7.5 mg/kg/injection, schedule: Q01DX Z (ip), vehicle: other 88 % of control | dose: 15.0 mg/kg/injection, schedule: Q01DX Z (ip), vehicle: other 97 % of control

CN(C)CCCN1c2cc(Cl)ccc2Sc2ccc(Cl)cc21
inactive: [11] 122 % of control | [12] 108 % of control

CC(NC(C)c1ccccc1)c1ccccc1 (centres undefined)
inactive: dose: 50.0 mg/kg/injection, schedule: Q01DX009 (ip), vehicle: Klucel (hydroxypropylcellulose) (HPC) 102 % of control | dose: 100.0 mg/kg/injection, schedule: Q01DX009 (ip), vehicle: Klucel (hydroxypropylcellulose) (HPC) 106 % of control | [9] 104 % of control | [10] 100 % of control
